Assay results from US20260102383A1, “LPAR1 Inhibitors” (AbbVie Inc., priority 2024, published 2026).

Molecular target: T1, human LPAR1 (Homo sapiens, UniProt Q92633)
T1 construct: host or cells: TangoEDG2-bla U2OS cells
Assay: Arrestin assay (Arrestin Reporter EDG2-bla U2OS), inhibition of LPA-stimulated signal
Format: cell-based
Details: TangoEDG2-bla U2OS cells expressing human LPAR1; 0.25 μM LPA; read-out: Arrestin Reporter EDG2-bla U2OS Human Merged IC50
Protocol: The inhibitory activity of compounds 15, 62, 77, 84 and 169 against LPAR1 was measured using an Arrestin assay in U2OS cells expressing human LPAR1.
FreeStyle media was warmed in a 37° C. water bath. Cryo-preserved vial(s) of TangoEDG2-bla U2OS cells were rapidly thawed in a 37° C. water bath. The thawed cells were added to FreeStyle media and cells were pelleted at 300×g for 5 minutes. The supernatant was aspirated, and cells were resuspended in FreeStyle media. Cell density was adjusted to 0.25×10^6 cells/mL. Cells (1×10^4 in 40 μL) were added to each well of Greiner 384 well black cell plate(s). Cell plate(s) were placed in a humidified 37° C./5% CO2 incubator for 18-20 hours. Dilutions of test compound were prepared at 6× final concentration; 12-point, 3-fold dilutions using HH Buffer (1×HBSS plus 20 mM HEPES). The 6× test compound was then added to the cell plate(s) at 10 μL/well. The final concentration ranged from 10 μM to 0.00006 μM. Cell plate(s) were incubated in a humidified 37° C./5% CO2 incubator for 1 hour. During the incubation, 6×LPA was prepared at 1.5 μM in 0.1% BSA HH Buffer. After the 1-hour incubation of test compound with cells, the LPA was added to the cell plate(s) at 10 μL/well (final LPA concentration of 0.25 μM). Cell plate(s) were returned to a humidified 37° C./5% CO2 incubator for 3 hours. The Development solution was made up per the LiveBLAzerFRET B/G kit protocol. The Development solution was added to the cell plate(s) at 10 μL/well. Cell plates were incubated in the dark at room temperature for 2 hours. Plate(s) were read on an Envision Plate Reader (Perkin Elmer) to read fluorescence; excitation at 409 nm with emission at 460 nm and 530 nm. Raw Data for analysis is the ratio of emission at 460 nm divided by emission 530 nm. The formula used to determine % Inhibition is as follows (1−(Raw Data−Low Average)/(High Average−Low Average))*100. Percent Inhibition was plotted to determine IC50 value with GraphPad Prism 9.5.0 software using Variable slope 4-parameter curve fit analysis.
Additional compounds of the present disclosure were synthesized in a manner similar to the compounds described above and understood by a person of ordinary skill in the art. The inhibitory activity of the compounds of the present disclosure against LPAR1 was measured using the above-referenced Arrestin Assay protocol.

T1 sequence (Q92633 whole entry): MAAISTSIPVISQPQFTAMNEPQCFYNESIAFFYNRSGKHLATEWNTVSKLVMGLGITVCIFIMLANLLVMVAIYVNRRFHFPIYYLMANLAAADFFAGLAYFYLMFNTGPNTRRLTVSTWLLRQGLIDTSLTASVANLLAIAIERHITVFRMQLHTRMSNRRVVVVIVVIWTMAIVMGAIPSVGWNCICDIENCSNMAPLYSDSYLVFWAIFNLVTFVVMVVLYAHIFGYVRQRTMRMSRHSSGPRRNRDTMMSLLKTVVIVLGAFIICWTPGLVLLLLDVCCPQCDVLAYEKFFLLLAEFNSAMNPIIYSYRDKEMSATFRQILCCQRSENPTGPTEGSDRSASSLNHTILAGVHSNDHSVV

Molecule `CCOC(=O)N1CCC(CN2CCC(C(=O)Nc3ccc(Cl)cc3OC(F)F)(n3ncc(OC)c3C(C)C)CC2)(C(=O)O)CC1` [Compound 99, 4-[[4-[[4-chloro-2-(difluoromethoxy)phenyl]carbamoyl]-4-(5-isopropyl-4-methoxy-pyrazol-1-yl)-1-piperidyl]methyl]-1-ethoxycarbonyl-piperidine-4-carboxylic acid] has an IC50 of 32.1 nM.
With `CC(C)c1ccnn1C1(C(=O)Nc2ccc(Cl)cc2OC(F)F)CCN(CC(C(=O)O)C2COCCOC2)CC1` (centres unmarked) [Compound 196, 3-[4-[[4-chloro-2-(difluoromethoxy)phenyl]carbamoyl]-4-(5-isopropylpyrazol-1-yl)-1-piperidyl]-2-(1,4-dioxepan-6-yl)propanoic acid] the IC50 was 34.7 nM.
`CC(C)c1ccnn1C1(C(=O)Nc2ccc(Cl)cc2OC(F)F)CCN(CC2(C(=O)O)CCN(C(=O)C3CC3)CC2)CC1` [Compound 43, 4-[[4-[[4-chloro-2-(difluoromethoxy)phenyl]carbamoyl]-4-(5-isopropylpyrazol-1-yl)-1-piperidyl]methyl]-1-(cyclopropanecarbonyl) piperidine-4-carboxylic acid] showed an IC50 of 27.6 nM.
Work on `COc1ccc([C@H](CN2CCC(C(=O)Nc3ccc(Cl)cc3OC(F)F)(n3nccc3C(C)C)CC2)C(=O)O)cc1` [Compound 28] yielded an IC50 of 4.82 nM.
In the case of `CC(C)c1ccnn1C1(C(=O)Nc2ccc(Cl)cc2OC(F)F)CCN([C@H]2C[C@](C#N)(C(=O)O)C2)CC1` [Compound 111, (1r,3r)-3-[4-[[4-chloro-2-(difluoromethoxy)phenyl]carbamoyl]-4-(5-isopropylpyrazol-1-yl)-1-piperidyl]-1-cyano-cyclobutanecarboxylic acid], the IC50 is reported as 221 nM.
`CCC(=O)N1CC[C@](CN2CCC(C(=O)Nc3ccc(Cl)cc3OC(F)F)(n3nccc3C(C)C)CC2)(C(=O)O)C1` [Compound 101, (3R)-3-[[4-[[4-chloro-2-(difluoromethoxy)phenyl]carbamoyl]-4-(5-isopropylpyrazol-1-yl)-1-piperidyl]methyl]-1-propanoyl-pyrrolidine-3-carboxylic acid] gave an IC50 of 80.9 nM.
Work on `CC(C)c1ccnn1C1(C(=O)Nc2ccc(Cl)cc2OC(F)F)CCN(CC2(C(=O)O)CCN(C(=O)C[C@@H]3CCOC3)CC2)CC1` [Compound 93, 4-[[4-[[4-chloro-2-(difluoromethoxy)phenyl]carbamoyl]-4-(5-isopropylpyrazol-1-yl)-1-piperidyl]methyl]-1-[2-[(3S)-tetrahydrofuran-3-yl]acetyl]piperidine-4-carboxylic acid] yielded an IC50 of 539 nM.
`CC(C)c1ccnn1C1(C(=O)Nc2ccc(Cl)cc2OC(F)F)CCN(Cc2cccc(C(=O)O)n2)CC1` [Compound 36, 6-[[4-[[4-chloro-2-(difluoromethoxy)phenyl]carbamoyl]-4-(5-isopropylpyrazol-1-yl)-1-piperidyl]methyl]pyridine-2-carboxylic acid] was tested, and the IC50 was 55.3 nM.
Molecule `CCOC(=O)N1CCC(CN2CCC(C(=O)Nc3ccc(Cl)cc3OC(F)F)(n3nccc3C(C)C)CC2)(C(=O)O)CC1` [Compound 6, 4-[[4-[[4-chloro-2-(difluoromethoxy)phenyl]carbamoyl]-4-(5-isopropylpyrazol-1-yl)-1-piperidyl]methyl]-1-ethoxycarbonyl-piperidine-4-carboxylic acid] has an IC50 of 24.7 nM.
`CC(C)c1ccnn1C1(C(=O)Nc2ccc(Cl)cc2OC(F)F)CCN(CC2(C(=O)O)CCN(c3cnccn3)CC2)CC1` [Compound 18, 4-[[4-[[4-chloro-2-(difluoromethoxy)phenyl]carbamoyl]-4-(5-isopropylpyrazol-1-yl)-1-piperidyl]methyl]-1-pyrazin-2-yl-piperidine-4-carboxylic acid] showed an IC50 of 11 nM.
Molecule `COCC[C@H](CN1CCC(C(=O)Nc2ccc(Cl)cc2OC(F)F)(n2nccc2C(C)C)CC1)C(=O)O` [Compound 157, (2R)-2-[[4-[[4-chloro-2-(difluoromethoxy)phenyl]carbamoyl]-4-(5-isopropylpyrazol-1-yl)-1-piperidyl]methyl]-4-methoxy-butanoic acid] has an IC50 of 53.2 nM.
With `COC1(C(=O)N2CCC(CN3CCC(C(=O)Nc4ccc(Cl)cc4OC(F)F)(n4nccc4C(C)C)CC3)(C(=O)O)CC2)CC1` [Compound 58, 4-[[4-[[4-chloro-2-(difluoromethoxy)phenyl]carbamoyl]-4-(5-isopropylpyrazol-1-yl)-1-piperidyl]methyl]-1-(1-methoxycyclopropanecarbonyl) piperidine-4-carboxylic acid] the IC50 was 75.6 nM.
For `CC(C)c1ccnn1C1(C(=O)Nc2ccc(Cl)cc2OC(F)F)CCN(CC(Cn2cccn2)C(=O)O)CC1` (centres unmarked) [Compound 129, 2-[[4-[[4-chloro-2-(difluoromethoxy)phenyl]carbamoyl]-4-(5-isopropylpyrazol-1-yl)-1-piperidyl]methyl]-3-pyrazol-1-yl-propanoic acid], the IC50 was 34.7 nM.
Molecule `CC(C)c1ccnn1C1(C(=O)Nc2ccc(Cl)cc2OC(F)F)CCN(C[C@](C)(O)C(=O)O)CC1` [Compound 236, (2S)-3-[4-[[4-chloro-2-(difluoromethoxy)phenyl]carbamoyl]-4-(5-isopropylpyrazol-1-yl)-1-piperidyl]-2-hydroxy-2-methyl-propanoic acid] has an IC50 of 64.8 nM.
Work on `CC(C)c1c(F)cnn1C1(C(=O)Nc2ccc(Cl)cc2OC(F)F)CCN(C[C@@H](C(=O)O)C2CCOCC2)CC1` [Compound 158, (2.8)-3-[4-[[4-chloro-2-(difluoromethoxy)phenyl]carbamoyl]-4-(4-fluoro-5-isopropyl-pyrazol-1-yl)-1-piperidyl]-2-tetrahydropyran-4-yl-propanoic acid] yielded an IC50 of 46 nM.
Molecule `CC(C)c1ccnn1C1(C(=O)Nc2ccc(Cl)cc2OC(F)F)CCN(CC2(C(=O)O)CCC2)CC1` [Compound 45, 1-[[4-[[4-chloro-2-(difluoromethoxy)phenyl]carbamoyl]-4-(5-isopropylpyrazol-1-yl)-1-piperidyl]methyl]cyclobutanecarboxylic acid] has an IC50 of 17.6 nM.
`CO[C@H]1C[C@H]([C@@H](CN2CCC(C(=O)Nc3ccc(Cl)cc3OC(F)F)(n3nccc3C(C)C)CC2)C(=O)O)C1` [Compound 230, (2S)-3-[4-[[4-chloro-2-(difluoromethoxy)phenyl]carbamoyl]-4-(5-isopropylpyrazol-1-yl)-1-piperidyl]-2-((1r,3S)-3-methoxycyclobutyl) propanoic acid] was tested, and the IC50 was 25.5 nM.
`CC(C)c1ccnn1C1(C(=O)Nc2ccc(Cl)cc2OC(F)F)CCN(Cc2c(C(=O)O)nnn2C)CC1` [Compound 179, 5-[[4-[[4-chloro-2-(difluoromethoxy)phenyl]carbamoyl]-4-(5-isopropylpyrazol-1-yl)-1-piperidyl]methyl]-1-methyl-triazole-4-carboxylic acid] was tested, and the IC50 was 174 nM.
With `CO[C@]1(C(=O)O)C[C@@H](N2CCC(C(=O)Nc3ccc(Cl)cc3OC(F)F)(n3ncc(F)c3C(C)C)CC2)C1` [Compound 204, (1r,3r)-3-[4-[[4-chloro-2-(difluoromethoxy)phenyl]carbamoyl]-4-(4-fluoro-5-isopropyl-pyrazol-1-yl)-1-piperidyl]-1-methoxy-cyclobutanecarboxylic acid] the IC50 was 46.9 nM.
`COCCC(CN1CCC(C(=O)Nc2ccc(Cl)cc2OC(F)F)(n2nccc2C(C)C)CC1)C(=O)O` (centres unmarked) [Compound 142, 2-[[4-[[4-chloro-2-(difluoromethoxy)phenyl]carbamoyl]-4-(5-isopropylpyrazol-1-yl)-1-piperidyl]methyl]-4-methoxy-butanoic acid] showed an IC50 of 37.9 nM.
`CC(C)C(=O)N1CCC(CN2CCC(C(=O)Nc3ccc(Cl)cc3OC(F)F)(n3nccc3C(C)C)CC2)(C(=O)O)CC1` [Compound 75, 4-[[4-[[4-chloro-2-(difluoromethoxy)phenyl]carbamoyl]-4-(5-isopropylpyrazol-1-yl)-1-piperidyl]methyl]-1-(2-methylpropanoyl)piperidine-4-carboxylic acid] was tested, and the IC50 was 32.7 nM.
`CC(C)c1ccnn1C1(C(=O)Nc2ccc(Cl)cc2OC(F)F)CCN(CC2(CC(=O)O)CC2)CC1` [Compound 49, 2-[1-[[4-[[4-chloro-2-(difluoromethoxy)phenyl]carbamoyl]-4-(5-isopropylpyrazol-1-yl)-1-piperidyl]methyl]cyclopropyl]acetic acid] was tested, and the IC50 was 73.2 nM.
For `CC(C)c1ccnn1C1(C(=O)Nc2ccc(Cl)cc2OC(F)F)CCN(CC2(C(=O)O)C[C@@H](C)O[C@@H](C)C2)CC1` (stereo partly drawn) [Compound 180, (2R,6S)-4-[[4-[[4-chloro-2-(difluoromethoxy)phenyl]carbamoyl]-4-(5-isopropylpyrazol-1-yl)-1-piperidyl]methyl]-2,6-dimethyl-tetrahydropyran-4-carboxylic acid], the IC50 was 48.8 nM.
